Test [1] relates to Glomerella lagenarium (Colletotrichum lagenarium). The test can be described thus: Fungicidal activity against Glomerella lagenarium (Colletotrichum lagenarium) liquid culture / cucumber / preventative (anthracnose). In kind it is cell-based. The following applies: Colletotrichum orbiculare; 20 ppm in the applied formulation; liquid culture (PDB), growth inhibition measured photometrically after 3 to 4 days; compared to untreated control; read-out: disease control. In outline:
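Photometric read-out of fungal growth after 2–7 days, expressed as percent antifungal activity versus untreated check. Cryo-stored conidia in PDB; compound at 20 ppm; dark, 24 °C, 96% RH.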

The next test relates to Phakopsora Pachyrhizi. The test is described as follows: Fungicidal activity against Phakopsora pachyrhizi / soybean / leaf disc preventative (Asian soybean rust). It counts as in vivo. The following applies: foliar, 200 ppm in the applied formulation, soybean leaf disks, compared to untreated control leaf disks, read-out: disease control. The procedure, abridged: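 Preventative soybean leaf-disc test: discs on water agar sprayed with diluted formulated compound, inoculated one day later with spores on the lower surface. Held 24–36 h dark at 20°C, 75% rh, then 12 h light/day; percent disease control versus untreated discs scored 12–14 days after application.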

Test [2] concerns Puccinia recondita f. Sp. Tritici. The test is described as follows: Fungicidal activity against Puccinia recondita f. sp. tritici / wheat / leaf disc curative (brown rust). In kind it is in vivo. The following applies: foliar, 24 h, 200 ppm in the applied formulation, wheat leaf segments, curative (applied 1 day after inoculation), compared to untreated control leaf disks, read-out: disease control. In outline: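 Segments of wheat cv. Kanzler were laid on agar and inoculated with a spore suspension of the rust, then held in darkness at 19° C and 75% relative humidity. One day later the water-diluted formulated compound was applied, with incubation continued under a 12 h light/dark cycle.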

For test [3] the test system is unchanged. The test can be described thus: Fungicidal activity against Puccinia recondita f. sp. tritici / wheat / leaf disc preventative (brown rust). The following applies: foliar, 200 ppm in the applied formulation, wheat leaf segments, preventative, compared to untreated control leaf disks, read-out: disease control. In kind it is in vivo. The procedure, abridged: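 Preventative leaf-segment test, wheat cv. Kanzler on water agar. Spray compound at 200 ppm, inoculate with spores 1 day later; 19° C., 75% rh, 12/12 h light. Read-out: % disease control vs untreated, 7 to 9 days after application.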

The text below walks through data of US11180462B2, “Microbiocidal oxadiazole derivatives” (SYNGENTA PARTICIPATIONS AG, priority 2015, dated 2021).

`COCCOC(=O)N(Cc1ccc(-c2noc(C(F)(F)F)n2)cc1)OC` [Compound 2.2, 2-methoxyethyl N-methoxy-N-[[4-[5-(trifluoromethyl)-1,2,4-oxadiazol-3-yl]phenyl]methyl]-carbamate]: the inhibition of growth at 20 ppm in test [1] is at least 80%. Besides, the pest or weed control at 200 ppm (in the test with Phakopsora Pachyrhizi; in test [2]) was at least 80% in each case.

On to `CON(Cc1ccc(-c2noc(C(F)(F)F)n2)cc1)C(=O)C1C(C)(C)C1(C)C` [Compound 1.14, N-methoxy-2,2,3,3-tetramethyl-N-[[4-[5-(trifluoromethyl)-1,2,4-oxadiazol-3-yl]phenyl]methyl]-cyclopropane-carboxamide], for which the pest or weed control at 200 ppm (with Phakopsora Pachyrhizi; in test [2]) was at least 80% each time.

In the case of `COC(=O)N(Cc1ccc(-c2noc(C(F)(F)F)n2)cc1)OC` [Compound 2.3, methyl N-methoxy-N-[[4-[5-(trifluoromethyl)-1,2,4-oxadiazol-3-yl]phenyl]methyl]carbamate], in test [1], the inhibition of growth at 20 ppm is at least 80%. Also, the pest or weed control at 200 ppm (in the test on Phakopsora Pachyrhizi; in test [2]) was at least 80% in each case.

On to `CCC(=O)N(Cc1ccc(-c2noc(C(F)(F)F)n2)cc1F)OC` [Compound 1.568, N-[[2-fluoro-4-[5-(trifluoromethyl)-1,2,4-oxadiazol-3-yl]phenyl]methyl]-N-methoxy-propanamide], for which the inhibition of growth at 20 ppm in test [1] is at least 80%. Moreover, the pest or weed control at 200 ppm (in the test with Phakopsora Pachyrhizi; in test [2]) was at least 80% throughout.

As to `CCC(=O)N(Cc1ccc(-c2noc(C(F)(F)F)n2)cn1)OC` [Compound 1.571, N-methoxy-N-[[5-[5-(trifluoromethyl)-1,2,4-oxadiazol-3-yl]-2-pyridyl]methyl]-propanamide], the inhibition of growth at 20 ppm in test [1] is at least 80%. The pest or weed control at 200 ppm (in the test on Phakopsora Pachyrhizi; in test [2]) was at least 80% each time.

For `O=C(CC1CC1)N(Cc1ccc(-c2noc(C(F)(F)F)n2)cc1)CC1CCCO1` (stereo not shown) [Compound 1.418, 2-cyclopropyl-N-(tetrahydrofuran-2-ylmethyl)-N-[[4-[5-(trifluoromethyl)-1,2,4-oxadiazol-3-yl]phenyl]methyl]-acetamide], the inhibition of growth at 20 ppm in test [1] was at least 80%. Also, the pest or weed control at 200 ppm (in the test with Phakopsora Pachyrhizi; in test [3]) was at least 80% in each case.

Turning to `CON(Cc1ccc(-c2noc(C(F)(F)F)n2)c(F)c1F)C(=O)c1ccccc1Cl` [Compound 1.576, 2-chloro-N-[[2,3-difluoro-4-[5-(trifluoromethyl)-1,2,4-oxadiazol-3-yl]phenyl]methyl]-N-methoxy-benzamide], in test [1], the inhibition of growth at 20 ppm is at least 80%. The pest or weed control at 200 ppm (with Phakopsora Pachyrhizi; in test [3]) was at least 80% throughout.

For the compound `CCCCON(Cc1ccc(-c2noc(C(F)(F)F)n2)cc1)C(=O)C(C)OC` (stereo not shown) [Compound 1.647, N-butoxy-2-methoxy-N-[[4-[5-(trifluoromethyl)-1,2,4-oxadiazol-3-yl]phenyl]methyl]-propanamide], in test [1], the inhibition of growth at 20 ppm was at least 80%. For the same compound, the pest or weed control at 200 ppm (in the test on Phakopsora Pachyrhizi; in test [3]) was at least 80% throughout.

Turning to `O=C(CC1CC1)N(CCO)Cc1ccc(-c2noc(C(F)(F)F)n2)cc1` [Compound 1.736, 2-cyclopropyl-N-(2-hydroxyethyl)-N-[[4-[5-(trifIuoromethyl)-1,2,4-oxadiazol-3-yl]phenyl]methyl]-acetamide], the inhibition of growth at 20 ppm in test [1] is at least 80%. The pest or weed control at 200 ppm (with Phakopsora Pachyrhizi; in test [3]) was at least 80% in each case.

For the compound `CCCON(Cc1ccc(-c2noc(C(F)(F)F)n2)cc1)C(=O)C1CCCO1` (stereo not shown) [Compound 1.312, N-propoxy-N-[[4-[5-(trifluoromethyl)-1,2,4-oxadiazol-3-yl]phenyl]methyl]-tetrahydrofuran-2-carboxamide], the inhibition of growth at 20 ppm in test [1] was at least 80%. In addition, the pest or weed control at 200 ppm (in the test with Phakopsora Pachyrhizi; in test [3]) was at least 80% throughout.

`CON(Cc1ccc(-c2noc(C(F)(F)F)n2)cc1)C(=O)N(C)C#N` [Compound 3.62, 1-cyano-3-methoxy-1-methyl-3-[[4-[5-(trifluoromethyl)-1,2,4-oxadiazol-3-yl]phenyl]methyl]urea]: in test [1], the inhibition of growth at 20 ppm is at least 80%. Further, the pest or weed control at 200 ppm (in the test with Phakopsora Pachyrhizi; in test [3]) was at least 80% in each case.

Take `C#CCOc1ccc(C(=O)N(Cc2ccc(-c3noc(C(F)(F)F)n3)cc2)OC)cc1F` [Compound 1.51, 3-fluoro-N-methoxy-4-prop-2-ynoxy-N-[[4-[5-(trifluoromethy)-1,2,4-oxadiazol-3-yl]phenyl]methyl]-benzamide]: the inhibition of growth at 20 ppm in test [1] was at least 80%. In addition, the pest or weed control at 200 ppm (in the test with Phakopsora Pachyrhizi; in test [3]) was at least 80% in each case.

`O=C(CC(F)(F)F)OCCN(Cc1ccc(-c2noc(C(F)(F)F)n2)cc1)C(=O)CC(F)(F)F` [Compound 1.734, 2-[[4-[5-(trifluoromethyl)-1,2,4-oxadiazol-3-yl]phenyl]methyl-(3,3,3-trifluoropropanoyl)-amino]ethyl 3,3,3-trifluoropropanoate]: in test [1], the inhibition of growth at 20 ppm was at least 80%. The pest or weed control at 200 ppm (in the test with Phakopsora Pachyrhizi; in test [3]) was at least 80% throughout.

For `O=C(CC(F)(F)F)N(Cc1ccc(-c2noc(C(F)(F)F)n2)cc1)CC(F)(F)F` [Compound 1.704, 3,3,3-trifluoro-N-(2,2,2-trifluoroethyl)-N-[[4-[5-(trifluoromethyl)-1,2,4-oxadiazol-3-yl]phenyl]methyl]-propanamide], the inhibition of growth at 20 ppm in test [1] is at least 80%. The pest or weed control at 200 ppm (in the test on Phakopsora Pachyrhizi; in test [3]) was at least 80% in each case.

`CCCCCC(=O)N(Cc1ccc(-c2noc(C(F)(F)F)n2)cc1)C1CC1` [Compound 1.93, N-cyclopropyl-N-[[4-[5-(trifluoromethyl)-1,2,4-oxadiazol-3-yl]phenyl]methyl]-hexanamide]: the inhibition of growth at 20 ppm in test [1] is at least 80%. In addition, the pest or weed control at 200 ppm (with Phakopsora Pachyrhizi; in test [3]) was at least 80% in each case.

Take `CCC(C)(CC)C(=O)N(Cc1ccc(-c2noc(C(F)(F)F)n2)cc1)C1CC1` [Compound 1.135, N-cyclopropyl-2-ethyl-2-methyl-N-[[4-[5-(trifluoromethyl)-1,2,4-oxadiazol-3-yl]phenyl]methyl]-butanamide]: the inhibition of growth at 20 ppm in test [1] was at least 80%. The pest or weed control at 200 ppm (in the test with Phakopsora Pachyrhizi; in test [3]) was at least 80% each time.

On to `COC(C)C(=O)N(Cc1ccc(-c2noc(C(F)(F)F)n2)cc1)C1COC1` (stereo not shown) [Compound 1.750, 2-methoxy-N-(oxetan-3-yl)-N-[[4-[5-(trifluoromethyl)-1,2,4-oxadiazol-3-yl]phenyl]methyl]-propanamide], for which the pest or weed control at 200 ppm (in the test on Phakopsora Pachyrhizi; in test [2]) was at least 80% in each case.

`CC(=O)N(CCO)Cc1ccc(-c2noc(C(F)(F)F)n2)cc1` [Compound 1.735, N-(2-hydroxyethyl)-N-[[4-[5-(trifluoromethyl)-1,2,4-oxadiazol-3-yl]phenyl]methyl]-acetamide]: in test [1], the inhibition of growth at 20 ppm was at least 80%. The pest or weed control at 200 ppm (in the test on Phakopsora Pachyrhizi; in test [3]) was at least 80% each time.

`O=C(C1CC1F)N(Cc1ccc(-c2noc(C(F)(F)F)n2)cc1)Cc1ccco1` (stereo not shown) [Compound 1.471, 2-fluoro-N-(2-furylmethyl)-N-[[4-(5-(trifluoromethyl)-1,2,4-oxadiazol-3-yl]phenyl]methyl]-cyclopropane-carboxamide]: the inhibition of growth at 20 ppm in test [1] was at least 80%. For the same compound, the pest or weed control at 200 ppm (in the test on Phakopsora Pachyrhizi; in test [3]) was at least 80% in each case.

On to `O=C(C1CCCCC1)N(Cc1ccc(-c2noc(C(F)(F)F)n2)cc1)C1CC1` [Compound 1.90, N-cyclopropyl-N-[[4-[5-(trifluoromethyl)-1,2,4-oxadiazol-3-yl]phenyl]methyl]-cyclohexane-carboxamide], for which the inhibition of growth at 20 ppm in test [1] was at least 80%. Besides, the pest or weed control at 200 ppm (in the test on Phakopsora Pachyrhizi; in test [3]) was at least 80% each time.

In the case of `O=C(OCCN(Cc1ccc(-c2noc(C(F)(F)F)n2)cc1)C(=O)C1CCC1)C1CCC1` [Compound 1.715, 2-[cyclobulanecarbonyl-[[4-[5-(trifluoromethyl)-1,2,4-oxadiazol-3-yl]phenyl]methyl]-amino]ethyl cyclobutane-carboxylate], the inhibition of growth at 20 ppm in test [1] is at least 80%. In addition, the pest or weed control at 200 ppm (in the test on Phakopsora Pachyrhizi; in test [3]) was at least 80% throughout.

As to `C#CCOC(=O)NC(C(=O)N(Cc1ccc(-c2noc(C(F)(F)F)n2)cc1)C1CC1)C(C)C` (stereo not shown) [Compound 1.144, prop-2-ynyl N-[1-[cyclopropyl-[[4-[5-(trifluoromethyl)-1,2,4-oxadiazol-3-yl]phenyl]methyl]-carbamoyl]-2-methyl-propyl]carbamate], the inhibition of growth at 20 ppm in test [1] was at least 80%. In addition, the pest or weed control at 200 ppm (in the test with Phakopsora Pachyrhizi; in test [3]) was at least 80% each time.
